Measurements reported in ChEMBL document CHEMBL5050862, “Compounds for inhibiting ly6k and methods of using same” (2021).
Blank lines part the entries; values can stand above or below the compound they belong to. Active and inactive are the calls of the source. No cut-off for these calls is given here.

Experiments:
[1] = target: Mothers against decapentaplegic homolog 2/homolog 3 (Homo sapiens) (UniProt P84022+Q15796); test: Inhibition of TGF-beta1-induced Smad2/3 phopshorylation in human MDA-MB-231 cells at 2 uM measured after 30 mins by Western blot analysis; assay type: cell-based
Sequence of Mothers against decapentaplegic homolog 2/homolog 3 (Homo sapiens) (P84022 whole entry, looked up): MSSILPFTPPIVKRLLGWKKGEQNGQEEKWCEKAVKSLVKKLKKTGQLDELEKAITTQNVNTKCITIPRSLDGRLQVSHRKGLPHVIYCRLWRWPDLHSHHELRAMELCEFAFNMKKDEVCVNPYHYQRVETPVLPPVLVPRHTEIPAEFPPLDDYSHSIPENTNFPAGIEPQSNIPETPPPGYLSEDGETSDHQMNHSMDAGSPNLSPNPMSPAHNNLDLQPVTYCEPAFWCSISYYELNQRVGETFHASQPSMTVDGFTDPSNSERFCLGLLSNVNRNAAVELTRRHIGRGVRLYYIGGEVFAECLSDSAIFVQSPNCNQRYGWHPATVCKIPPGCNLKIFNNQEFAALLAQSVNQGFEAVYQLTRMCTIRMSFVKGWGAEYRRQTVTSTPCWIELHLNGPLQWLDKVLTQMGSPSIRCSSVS
Sequence of Mothers against decapentaplegic homolog 2/homolog 3 (Homo sapiens) (Q15796 whole entry, looked up): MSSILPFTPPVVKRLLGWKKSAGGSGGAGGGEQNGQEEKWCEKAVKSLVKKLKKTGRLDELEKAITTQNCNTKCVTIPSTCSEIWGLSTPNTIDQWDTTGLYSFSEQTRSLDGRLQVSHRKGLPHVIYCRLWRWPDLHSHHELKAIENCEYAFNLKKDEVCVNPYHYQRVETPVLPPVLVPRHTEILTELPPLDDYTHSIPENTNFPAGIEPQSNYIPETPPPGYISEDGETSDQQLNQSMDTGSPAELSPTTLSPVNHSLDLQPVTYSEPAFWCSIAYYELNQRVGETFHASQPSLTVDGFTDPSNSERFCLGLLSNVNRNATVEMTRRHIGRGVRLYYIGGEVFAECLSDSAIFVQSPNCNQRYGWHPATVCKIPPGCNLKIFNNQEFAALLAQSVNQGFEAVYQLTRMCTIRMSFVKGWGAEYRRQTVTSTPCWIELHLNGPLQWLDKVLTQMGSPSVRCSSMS

[2] = tested on: MDA-MB-231; test: Antiproliferative activity against human MDA-MB-231 cells transfected with LY6K-ShRNA2 at 100 uM assessed as induction of cells death and measured after 24 hrs by Cell Titer Blue assay relative to control; assay type: functional, cell-based
[3] = tested on: MDA-MB-231; test: Antiproliferative activity against human MDA-MB-231 cells at 100 uM assessed as induction of cells death and measured after 24 hrs by Cell Titer Blue assay relative to control; assay type: functional, cell-based
[4] = tested on: MDA-MB-231; test: Down-regulation of PD-L1 expression in human MDA-MB-231 cells at 2 uM measured after 30 mins by Western blot analysis; assay type: functional, cell-based
[5] = tested on: 4T1; test: Antitumor activity against mouse 4T1 cells allografted in syngenetic BALB/c mouse assessed as tumor growth inhibition at 5 mg/kg, IT(Intratumoral) measured at day 11; assay type: functional, organism-based; settings: time 11.0 day
[6] = target: T1, Signal transducer and activator of transcription 1-alpha/beta (Homo sapiens) (UniProt P42224); test: Inhibition of IFN-gamma-induced Stat1 phopshorylation in human MDA-MB-231 cells at 2 uM measured after 30 mins by Western blot analysis; assay type: cell-based
T1 sequence (whole entry): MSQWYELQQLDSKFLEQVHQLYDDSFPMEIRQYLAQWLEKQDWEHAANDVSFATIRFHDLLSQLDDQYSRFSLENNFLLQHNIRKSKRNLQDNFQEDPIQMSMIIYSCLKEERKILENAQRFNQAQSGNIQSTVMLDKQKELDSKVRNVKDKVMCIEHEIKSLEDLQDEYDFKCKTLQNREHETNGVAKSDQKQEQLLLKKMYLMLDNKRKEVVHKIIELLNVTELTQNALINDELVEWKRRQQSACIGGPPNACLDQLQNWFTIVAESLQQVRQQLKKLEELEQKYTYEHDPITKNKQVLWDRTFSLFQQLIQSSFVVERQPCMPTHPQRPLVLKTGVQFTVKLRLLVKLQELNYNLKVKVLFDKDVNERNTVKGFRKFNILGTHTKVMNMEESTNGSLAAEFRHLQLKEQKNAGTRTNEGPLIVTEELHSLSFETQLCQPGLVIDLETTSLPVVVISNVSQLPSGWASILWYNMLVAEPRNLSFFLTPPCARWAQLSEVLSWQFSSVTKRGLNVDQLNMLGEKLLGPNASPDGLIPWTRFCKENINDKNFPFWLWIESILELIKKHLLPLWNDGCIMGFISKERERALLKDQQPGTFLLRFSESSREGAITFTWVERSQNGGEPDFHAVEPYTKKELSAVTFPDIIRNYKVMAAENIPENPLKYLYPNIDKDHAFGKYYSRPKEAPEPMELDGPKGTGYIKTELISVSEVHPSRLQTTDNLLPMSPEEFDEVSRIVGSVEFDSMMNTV

[7] = tested on: 4T1; test: Effect on total Ly6K levels in mouse 4T1 cells at 0.1 to 5 […] measured by Western blotting analysis; assay type: functional, cell-based; settings: dose 0.1-5 mM
[8] = tested on: MDA-MB-231; test: Antiproliferative activity against human MDA-MB-231 cells after 24 hrs by Cell Titer Blue assay; assay type: functional, cell-based; settings: MDA-MB-231, 24 h
[9] = tested on: E0771; test: Antitumor immunity in C57BL/6 mouse xenografted with mouse EO771 cells assessed as reduction in tumor growth at 10 mg/kg, ip administered every 3rd day; assay type: functional, organism-based; settings: time 3.0 day
[10] = tested on: 4T1; test: Antitumor activity against mouse 4T1 cells xenografted mouse assessed as decrease in myeloid-derived suppressor cells (MDSCs) in peripheral blood at 50 mg/kg, iv; assay type: functional; design: scale not given: the % may be the effect or the level left
[11] = tested on: MDA-MB-231; test: Antiproliferative activity against human MDA-MB-231 cells at 2 uM assessed as induction of cells death and measured after 24 hrs by Cell Titer Blue assay relative to control; assay type: functional, cell-based
[12] = tested on: 4T1; test: Induction of autophagy in mouse 4T1 cells at 0.1 to 5 uM assessed as activation of LC3B measured after 16 hrs by Western blot analysis; assay type: functional, cell-based; settings: dose 0.1-5 µM
[13] = tested on: 4T1; test: Induction of apoptosis in mouse 4T1 cells at 0.1 to 5 uM assessed as increase in PARP cleavage measured after 16 hrs by Western blot analysis; assay type: functional, cell-based; settings: dose 0.1-5 µM
[14] = tested on: 4T1; test: Down regulation of RhoA in mouse 4T1 cells at 0.1 to 5 uM measured after 16 hrs by Western blot analysis; assay type: functional, cell-based; settings: dose 0.1-5 µM
[15] = tested on: 4T1; test: Induction of apoptosis in mouse 4T1 cells at 0.1 to 5 uM assessed as activation of caspase-7 measured after 16 hrs by Western blot analysis; assay type: functional, cell-based; settings: dose 0.1-5 µM
[16] = tested on: 4T1; test: Induction of apoptosis in mouse 4T1 cells at 0.1 to 5 uM assessed as activation of caspase-3 measured after 16 hrs by Western blot analysis; assay type: functional, cell-based; settings: dose 0.1-5 µM
[17] = tested on: 4T1; test: Antitumor activity against mouse 4T1 cells xenografted mouse assessed as decrease in Cd11b and Gr-1-dual positive […] in peripheral blood at 50 mg/kg, iv; assay type: functional, organism-based
[18] = tested on: BT-549; test: Antiproliferative activity against human BT-549 cells after 24 hrs by Cell Titer Blue assay; assay type: functional, cell-based; settings: BT-549, 24 h
[19] = tested on: MDA-MB-231; test: Antiproliferative activity against human MDA-MB-231 cells transfected with LY6K-ShRNA2 at 2 uM assessed as induction of cells death and measured after 24 hrs by Cell Titer Blue assay relative to control; assay type: functional, cell-based
[20] = tested on: 4T1; test: Antitumor activity against mouse 4T1 cells allografted in syngenetic BALB/c mouse assessed as tumor growth inhibition at 5 mg/kg, IT(Intratumoral) measured at day 3; assay type: functional, organism-based; settings: time 3.0 day
[21] = tested on: Hs-578T; test: Antiproliferative activity against human Hs-578T cells after 24 hrs by Cell Titer Blue assay; assay type: functional, cell-based
[22] = tested on: OVCAR-8; test: Antiproliferative activity against human OVCAR-8 cells after 24 hrs by Cell Titer Blue assay; assay type: functional, cell-based; settings: OVCAR-8, 24 h

Activity [1]: inactive
Activity [6]: inactive
Structure (SMILES): Oc1ccc(Cc2ccc(Cl)cc2)c(O)c1
Activity [2]: Active
Activity [3]: Active
Activity [4]: inactive
Activity [5]: Active

Activity [1]: Active
IC50 [8]: 5.68 µM
IC50 [18]: 7.65 µM
IC50 [22]: 4.17 µM
Activity [6]: Active
Structure (SMILES): CCS(=O)(=O)Nc1ccc(Nc2c3ccccc3nc3ccccc23)c(OC)c1
Activity [7]: Active
Activity [9]: Active
Activity [10]: 90%
Activity [11]: Active
Activity [12]: Active
Activity [13]: Active
Activity [14]: Active
Activity [15]: Active
Activity [16]: Active
Activity [17]: Active
Activity [4]: Active
Activity [19]: inactive
Activity [20]: Active
IC50 [21]: 7.31 µM
